Peptide text beside a SMILES is read from it.
Assays:
[1] = tested on: APCs presenting the natural or modified survivin T-cell epitope; test: Cytotoxic CD4+ T cells elicited by in vivo immunisation; apoptosis (annexin V, Facs) of peptide-loaded APC in co-culture, survivin epitope; design: species or system C57BI/6 mice; conditions: 25 μg peptide, 3 footpath injections in CFA/IFA; splenic CD4+ T cells co-cultured 24 h with APC loaded with SEQ ID NO:5 or SEQ ID NO:6 (5 μg/mL)
Experimental: The sequence of the peptide corresponds to amino acids 61 to 69 of survivin, namely: FKELEGWEP (SEQ ID NO:5).
(§1) Finally, cells are analysed by Facs analysis.

[2] = tested on: APCs presenting the natural or modified Epstein-Barr LMP2 T-cell epitope; test: Cytotoxic CD4+ T cells elicited by in vivo immunisation; apoptosis (annexin V, Facs) of peptide-loaded APC in co-culture, Epstein-Barr LMP2 epitope; design: species or system BALB/c mice; conditions: 25 μg peptide, 3 footpath injections in CFA/IFA; splenic CD4+ T cells co-cultured 24 h with APC loaded with SEQ ID NO:7 or SEQ ID NO:8 (5 μg/mL)
Experimental: The sequence of the peptide corresponds to amino acids 167 to 175 of LMP2, namely: VASSYAAAQ (SEQ ID NO:7).
Spleen adherent cells prepared from naïve BALB/c mice are used as antigen-presenting cells (APC).
as §1

[3] = tested on: APCs presenting the natural or modified MAGE-3 T-cell epitope; test: Cytotoxic CD4+ T cells elicited by in vivo immunisation; apoptosis (annexin V, Facs) of peptide-loaded APC in co-culture, MAGE-3 epitope; design: species or system C57BI/6 mice; conditions: 25 μg peptide, 3 footpath injections in CFA/IFA; splenic CD4+ T cells co-cultured 24 h with APC loaded with SEQ ID NO:1 or SEQ ID NO:2 (5 μg/mL)
Experimental: The sequence of the (natural) T-cell epitope corresponds to amino acids 258 to 266 of MAGE-3, namely: YRQVPGSDP (SEQ ID NO:1).
as §1

## CC(C)C[C@H](NC(=O)[C@H](CCC(=O)O)NC(=O)[C@H](CCCCN)NC(=O)[C@H](Cc1ccccc1)NC(=O)[C@H](CS)NC(=O)CNC(=O)[C@H](Cc1c[nH]cn1)NC(=O)[C@@H](N)CS)C(=O)N[C@@H](CCC(=O)O)C(=O)NCC(=O)N[C@@H](Cc1c[nH]c2ccccc12)C(=O)N[C@@H](CCC(=O)O)C(=O)N1CCC[C@H]1C(=O)O [SEQ ID NO:6, CHGCFKELEGWEP] (H-CHGCFKELEGWEP-OH)
[1]
  elicitation of CD4+ T cells with cytotoxic properties towards APCs: can elicit CD4+ T cells with cytotoxic properties

## CC(C)[C@H](NC(=O)[C@H](CS)NC(=O)CNC(=O)[C@H](Cc1c[nH]cn1)NC(=O)[C@@H](N)CS)C(=O)N[C@@H](C)C(=O)N[C@@H](CO)C(=O)N[C@@H](CO)C(=O)N[C@@H](Cc1ccc(O)cc1)C(=O)N[C@@H](C)C(=O)N[C@@H](C)C(=O)N[C@@H](C)C(=O)N[C@@H](CCC(N)=O)C(=O)O [SEQ ID NO:8, CHGCVASSYAAAQ] (H-CHGCVASSYAAAQ-OH)
[2]
  elicitation of CD4+ T cells with cytotoxic properties towards APCs: can elicit CD4+ T cells with cytotoxic properties

## CC(C)[C@H](NC(=O)[C@H](CCC(N)=O)NC(=O)[C@H](CCCNC(=N)N)NC(=O)[C@H](Cc1ccc(O)cc1)NC(=O)[C@H](CS)NC(=O)CNC(=O)[C@H](Cc1c[nH]cn1)NC(=O)[C@@H](N)CS)C(=O)N1CCC[C@H]1C(=O)NCC(=O)N[C@@H](CO)C(=O)N[C@@H](CC(=O)O)C(=O)N1CCC[C@H]1C(=O)O [SEQ ID NO:2, CHGCYRQVPGSDP] (H-CHGCYRQVPGSDP-OH)
[3]
  elicitation of CD4+ T cells with cytotoxic properties towards APCs: can elicit CD4+ T cells with cytotoxic properties

From patent publication US10617748B2, “Immunogenic control of tumours and tumour cells” (LIFE SCIENCES RESEARCH PARTNERS VZW, priority 2008, dated 2020)
